Source: US5886165A, “Mixed backbone antisense oligonucleotides containing 2'-5'-ribonucleotide- and 3'-5'-deoxyribonucleotides segments” (Hybridon, Inc., priority 1996, dated 1999)
[25] = 2'-5' internucleotide linkage (phosphodiester)

How the values were obtained:
[1] = tested on: DNA target strand SEQ ID NO 10 (25 base sequence from the initiation codon region of the HIV-1 gag mRNA); test: Thermal melting study, duplex with DNA target strand; assay type: binding
Protocol: (§1) Thermal denaturation studies were carried out by mixing MBOs with the DNA or RNA target strands in equimolar ratios in 10 mM disodium hydrogen phosphate, pH 7.5±0.1, 100 mM sodium chloride buffer, heated to 95° C. for 10 min, and allowed to come to room temperature slowly before being stored at 4° C. overnight. The final total concentration of the oligonucleotide strands was 2.0 μM. Spectrophotometric measurements were performed at 260 nm using 1 cm path length quartz cuvettes at a heating rate of 0.5° C./min on a Perkin-Elmer (Norwalk, Conn.) Lambda 2 Specotrometer attached to a thermal controller and a personal computer. Melting temperatures (Tm) taken as the temperature of half-dissociation and were obtained from first derivative plots. Precision in Tm values estimated from variance in two or three repeated experiments was ±0.5° C.

[2] = tested on: snake venom phosphodiesterase; test: Snake venom phosphodiesterase assay; assay type: in vitro ADME; conditions: 0.01 U, 21° C.; compared with SEQ ID NO 7
Protocol: (§2) For snake venom phosphodiesterase assay, labeled oligonucleotide with cold oligonucleotide in a buffer (10 mM Tris, pH 8.0, 100 mM sodium chloride, and 10 mM magnesium chloride) was incubated with 0.01 U of snake venom phosphodiesterase (Boehringer-Mannheim, Indianapolis, Ind.) at 21° C. (final volume 40 μl). Aliquots were removed at different time intervals for electrophoretic gel analysis. For S1 nuclease assay, reactions were carried out as above but in […] sodium acetate, pH 5.0, 10 mM zinc acetate buffer and with 1.4 U of S1 nuclease (Gibco/BRL) incubated at 37° C. in a final volume of 50 μl. Aliquots were removed at different time intervals for electrophoretic gel analysis. Nuclease reactions were stopped by adding 5 μl of formamide gel loading buffer to each sample and heating at 90° C. for 5 min. All the samples were then run by 20% PAGE (7M urea) and visualized by autoradiography.

[3] = molecular target: T1, S1 nuclease (Aspergillus oryzae, UniProt P24021); test: S1 nuclease assay; assay type: in vitro ADME; conditions: 1.4 U, 37° C., pH 5.0
T1 construct: purchased Gibco/BRL
T1 sequence (P24021 21-287): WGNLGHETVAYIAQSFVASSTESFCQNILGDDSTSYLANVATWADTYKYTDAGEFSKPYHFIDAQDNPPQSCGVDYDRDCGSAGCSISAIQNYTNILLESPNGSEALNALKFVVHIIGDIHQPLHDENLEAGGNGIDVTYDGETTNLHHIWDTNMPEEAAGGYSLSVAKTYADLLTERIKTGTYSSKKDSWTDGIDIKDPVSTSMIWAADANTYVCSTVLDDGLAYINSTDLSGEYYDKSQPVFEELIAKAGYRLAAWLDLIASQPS
Protocol: as §2

[4] = tested on: Spleen cells (CD1 mouse); test: In vitro cell proliferation assay ([3H]thymidine); assay type: cell-based; conditions: at 10 μg/ml, 48 hrs
Protocol: Cell proliferation assays were carried out as described earlier (Zhao et al., Biochem. Pharmacol 51, 173-182 (1996)). Spleen cells (4-5 week old male CD1 mouse, 20-22 gm, Charles River, Wilmington, Mass.) suspensions were prepared and plated in 96-well dishes at a density of 10^6 cells/ml in a final volume of 100 μl. The cells were incubated at 37° C. after adding 10 μl of oligonucleotides. After 44 hrs incubation, 1 μCi [3H]thymidine (Amersham, Arlington Heights, Ill.) was added and the cells were pulse-labeled for another 4 hrs. The cells were harvested by an automatic cell harvester and the filters were counted by a scintillation counter. All experiments were carried out in triplicate.

[5] = tested on: RNA target strand SEQ ID NO 9 (25 base sequence from the initiation codon region of the HIV-1 gag mRNA); test: Thermal melting study, duplex with RNA target strand; assay type: binding
Protocol: as §1

[6] = tested on: citrated normal human donor plasma; test: Clotting assay, activated partial thromboplastin time (aPTT); conditions: compared to saline control
Protocol: The activated partial thromboplastin time (aPTT) was performed with citrated normal human donor plasma in duplicate on an Electra 1000C (Medical Laboratory Automation, Mount Vernon, N.Y.) according to recommended procedures using Actin FSL (Baxter Dade, Miami, Fla.) and 2.5 mM calcium to initiate clot formation, which was measured photometrically. Normal plasma aPTT values ranged from 27 to 39 sec. Data were calculated as 50% of prolongation as compared to the saline control.

[7] = Stability in DMEM cell culture medium containing 10% fetal calf serum; assay type: in vitro ADME; conditions: DMEM with 10% non-heat-inactivated fetal calf serum, 37° C.
Protocol: Oligonucleotides were labeled at the 5'-end with ^32 P using γ-^32 P-ATP (Amersham) and T4 polynucleotide kinase (Promega). Sambrook et al, Molecular Cloning, supra. Stability of the oligonucleotides in cell culture medium containing 10% fetal calf serum was tested by incubating a small amount of labeled oligonucleotide together with 100 ng of cold oligonucleotide in DMEM cell culture medium (Gibco/BRL, Grand Island, N.Y.) containing 10% non-heat-inactivated fetal calf serum (Gibco/BRL) at 37° C. in a final volume of 40 μl, and aliquots were removed at different times.

SEQ ID NO 1: Phosphodiester MBO with three 2'-5'-linkages at each of the 5'- and 3'-ends, complementary to HIV-1 gag mRNA (antisense CUCTCGCACCCATCTCTCTCCUUCT; linkages [25]3 o18 [25]3 (s phosphorothioate, o phosphodiester), sugars by position and methylation of C not given here)
Tm DNA ([1]; duplex with DNA SEQ ID NO 10, 10 mM disodium hydrogen phosphate pH 7.5, 100 mM NaCl, 2.0 μM total strands): 60.6 °C | Tm lower than duplex of control oligonucleotide SEQ ID NO 7, DNA target ([1]; vs SEQ ID NO 7, DNA SEQ ID NO 10): about 2.9 °C | stability against snake venom phosphodiesterase (in words) [2]: slightly higher stability | digestion by S1 nuclease (in words) [3]: quickly digested | Stimulation Index (Lymphocyte Proliferation) [4]: 0.67 ± 0.11 | Tm RNA ([5]; duplex with RNA SEQ ID NO 9, 10 mM disodium hydrogen phosphate pH 7.5, 100 mM NaCl, 2.0 μM total strands): 67.8 °C | Tm lower than duplex of control oligonucleotide SEQ ID NO 7, RNA target ([5]; vs SEQ ID NO 7, RNA SEQ ID NO 9): ~2.7 °C | 50% Prolongation of Clotting (aPTT) ([6]; human plasma): > 100.0 µg/mL | effect in coagulation assay (in words) ([6]; up to 100 μg/ml dose): negligible effect | stability in serum (in words) [7]: intact up to four hours
